Data reported in ChEMBL document CHEMBL5528037 (J Med Chem, 2024).
Activity calls are given as the source filed them. No cut-off for these calls is given here.

What was measured:
cells = settings: Mus musculus, Ba/F3 EGFR-L858R, 72 h
Description: Antiproliferative activity against mouse Ba/F3 EGFR-L858R cells assessed as inhibition of cell proliferation measured after 3 days by CellTiter-Glo assay

BaF3 [1] = test: cells; settings: Mus musculus, BaF3, 72 h
[2] = molecular target: Epidermal growth factor receptor (Homo sapiens) (UniProt P00533); test: Binding affinity to N-terminal protease cleavable His-GST tagged wild type human EGFR (696 to 1022 residues) expressed as baculovirus infected Sf9 cells assessed as mass shift at 10 fold molar excess incubated for 2 hrs by LC-MS/MS analysis
[3] = tested on: Epidermal growth factor receptor (Homo sapiens), P00533 [L858R,T790M]; test: Binding affinity to Cys797 residue of trypsin digested EGFR L858R/T790M mutant (unknown origin) by Nano-LC-MS/MS analysis
[4] = molecular target: T1, Tyrosine-protein kinase BTK (Homo sapiens, UniProt Q06187); test: Binding affinity to human BTK harboring cysteine at alphaD-1 position at 10 uM by Kinomescan analysis
T1 sequence (Q06187 whole entry, the tested form may be a part): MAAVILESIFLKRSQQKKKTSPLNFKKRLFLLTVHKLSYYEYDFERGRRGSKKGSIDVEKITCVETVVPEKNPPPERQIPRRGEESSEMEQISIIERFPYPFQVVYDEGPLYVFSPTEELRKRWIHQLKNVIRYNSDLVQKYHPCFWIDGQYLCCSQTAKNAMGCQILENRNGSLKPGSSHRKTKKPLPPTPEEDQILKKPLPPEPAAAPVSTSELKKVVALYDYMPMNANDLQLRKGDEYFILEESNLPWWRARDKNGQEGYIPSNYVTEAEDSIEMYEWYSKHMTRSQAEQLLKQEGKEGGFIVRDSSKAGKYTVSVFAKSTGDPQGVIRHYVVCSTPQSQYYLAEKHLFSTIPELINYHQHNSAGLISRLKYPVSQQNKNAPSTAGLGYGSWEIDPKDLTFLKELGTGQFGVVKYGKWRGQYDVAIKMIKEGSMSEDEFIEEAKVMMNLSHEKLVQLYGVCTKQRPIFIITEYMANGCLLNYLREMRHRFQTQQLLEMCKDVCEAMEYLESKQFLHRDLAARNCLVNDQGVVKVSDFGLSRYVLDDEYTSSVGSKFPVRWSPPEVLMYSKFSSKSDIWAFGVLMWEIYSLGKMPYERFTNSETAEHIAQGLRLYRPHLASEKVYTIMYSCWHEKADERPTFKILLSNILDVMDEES

[5] = molecular target: T2, Tyrosine-protein kinase JAK3 (Homo sapiens) (UniProt P52333); test: Binding affinity to human JAK3 JH1 domain harboring cysteine at alphaD-1 position at 10 uM by Kinomescan analysis
T2 sequence (whole entry): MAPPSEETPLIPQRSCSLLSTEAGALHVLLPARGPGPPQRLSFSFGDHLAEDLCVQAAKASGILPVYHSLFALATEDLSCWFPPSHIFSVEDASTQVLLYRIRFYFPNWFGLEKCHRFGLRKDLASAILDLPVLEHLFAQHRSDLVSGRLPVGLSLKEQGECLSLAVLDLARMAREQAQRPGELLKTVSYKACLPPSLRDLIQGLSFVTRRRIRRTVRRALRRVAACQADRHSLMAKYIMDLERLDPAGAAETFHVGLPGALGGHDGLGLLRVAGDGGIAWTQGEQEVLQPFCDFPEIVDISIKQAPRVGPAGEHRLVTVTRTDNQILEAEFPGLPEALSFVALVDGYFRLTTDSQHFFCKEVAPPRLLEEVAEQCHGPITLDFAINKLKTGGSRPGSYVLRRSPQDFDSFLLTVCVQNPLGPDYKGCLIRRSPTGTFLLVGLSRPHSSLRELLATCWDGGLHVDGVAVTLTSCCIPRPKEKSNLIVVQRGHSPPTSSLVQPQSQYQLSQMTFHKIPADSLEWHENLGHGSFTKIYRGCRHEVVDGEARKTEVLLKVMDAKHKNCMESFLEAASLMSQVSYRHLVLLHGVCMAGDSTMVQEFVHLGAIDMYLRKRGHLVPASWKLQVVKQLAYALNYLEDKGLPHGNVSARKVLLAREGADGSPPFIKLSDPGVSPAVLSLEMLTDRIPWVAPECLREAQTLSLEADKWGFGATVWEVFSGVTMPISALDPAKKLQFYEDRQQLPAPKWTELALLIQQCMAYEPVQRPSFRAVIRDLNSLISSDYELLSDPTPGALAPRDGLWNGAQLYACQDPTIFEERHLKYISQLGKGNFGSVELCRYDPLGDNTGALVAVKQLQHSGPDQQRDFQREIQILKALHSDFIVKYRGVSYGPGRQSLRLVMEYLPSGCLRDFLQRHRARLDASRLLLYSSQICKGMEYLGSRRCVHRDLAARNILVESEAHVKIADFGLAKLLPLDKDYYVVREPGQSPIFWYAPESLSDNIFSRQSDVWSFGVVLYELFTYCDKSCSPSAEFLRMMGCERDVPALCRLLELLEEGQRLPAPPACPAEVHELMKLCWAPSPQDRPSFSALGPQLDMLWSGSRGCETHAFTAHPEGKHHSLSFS

[6] = molecular target: Epidermal growth factor receptor (Homo sapiens) (UniProt P00533); test: Binding affinity to human EGFR harboring cysteine at alphaD-1 position at 10 uM by Kinomescan analysis
[7] = molecular target: T3, Dual specificity mitogen-activated protein kinase kinase 7 (Homo sapiens) (UniProt O14733); test: Binding affinity to human MKK7 harboring cysteine at alphaD-1 position at 10 uM by Kinomescan analysis
T3 sequence (whole entry): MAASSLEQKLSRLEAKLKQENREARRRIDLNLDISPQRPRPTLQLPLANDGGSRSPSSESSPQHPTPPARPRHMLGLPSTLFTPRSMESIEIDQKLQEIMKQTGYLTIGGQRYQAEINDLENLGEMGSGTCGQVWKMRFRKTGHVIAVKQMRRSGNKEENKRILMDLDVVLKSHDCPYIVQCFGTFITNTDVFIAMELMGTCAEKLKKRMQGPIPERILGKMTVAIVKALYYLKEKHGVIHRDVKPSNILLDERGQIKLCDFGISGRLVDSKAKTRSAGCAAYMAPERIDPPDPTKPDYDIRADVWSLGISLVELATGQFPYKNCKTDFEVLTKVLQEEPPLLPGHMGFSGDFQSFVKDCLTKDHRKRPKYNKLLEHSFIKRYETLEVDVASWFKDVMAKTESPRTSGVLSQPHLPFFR

[8] = molecular target: Epidermal growth factor receptor (Homo sapiens, UniProt P00533, L858R); test: Inhibition of EGFR L858R mutant (unknown origin) harboring cysteine at alphaD-1 position by LanthaScreen assay
[9] = molecular target: T4, Tyrosine-protein kinase JAK3 (Homo sapiens, UniProt P52333); test: Inhibition of JAK3 (unknown origin) harboring cysteine at alphaD-1 position by LanthaScreen assay
T4 sequence (P52333 whole entry): T2 sequence (whole entry)

[10] = molecular target: T1, Tyrosine-protein kinase BTK; test: Inhibition of BTK (unknown origin) harboring cysteine at alphaD-1 position by LanthaScreen assay
[11] = molecular target: T5, Dual specificity mitogen-activated protein kinase kinase 5 (Homo sapiens, UniProt Q13163); test: Inhibition of MEK5 (unknown origin) by LanthaScreen assay
T5 sequence (Q13163 whole entry): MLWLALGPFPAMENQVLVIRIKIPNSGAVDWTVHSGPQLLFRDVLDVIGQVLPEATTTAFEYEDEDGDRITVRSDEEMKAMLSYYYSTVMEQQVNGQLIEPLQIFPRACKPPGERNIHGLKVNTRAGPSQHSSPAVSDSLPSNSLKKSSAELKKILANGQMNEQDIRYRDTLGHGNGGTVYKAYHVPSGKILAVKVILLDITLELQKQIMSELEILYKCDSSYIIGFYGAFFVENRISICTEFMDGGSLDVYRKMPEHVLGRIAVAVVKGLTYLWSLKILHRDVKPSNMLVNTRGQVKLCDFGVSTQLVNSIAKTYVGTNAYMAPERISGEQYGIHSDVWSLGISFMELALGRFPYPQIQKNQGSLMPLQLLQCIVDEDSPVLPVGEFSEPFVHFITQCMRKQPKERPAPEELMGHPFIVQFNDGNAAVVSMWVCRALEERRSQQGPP

[12] = molecular target: T1, Tyrosine-protein kinase BTK; test: Binding affinity to BTK (unknown origin) assessed as covalent bond formation by measuring cysteine 481-labeling by mass spectrometry analysis relative to control
[13] = molecular target: T2, Tyrosine-protein kinase JAK3 (Homo sapiens); test: Binding affinity to JAK3 JH1 domain (unknown origin) assessed as covalent bond formation by measuring cysteine 909-labeling by mass spectrometry analysis relative to control
[14] = molecular target: T1, Tyrosine-protein kinase BTK; test: Displacement of K-10 tracer from wild type BTK in HEK293T cells expressing NanoLuc preincubated for 3 hrs followed by tracer addition and measured after 1 hr by NanoBRET analysis; type: cell-based
[15] = tested on: Tyrosine-protein kinase BTK (Homo sapiens), Q06187 [C481S]; test: Displacement of K-10 tracer from BTK C481S mutant in HEK293T cells expressing NanoLuc preincubated for 3 hrs followed by tracer addition and measured after 1 hr by NanoBRET analysis; type: cell-based; settings: time 4.0 hrs
Chain of Tyrosine-protein kinase BTK (Homo sapiens), Q06187 [C481S] (Q06187 whole entry C481S): as the sequence (Q06187 whole entry, the tested form may be a part) above, with C481S counted along it

HEK293T = test: Displacement of K-4 tracer from BLK C319S mutant in HEK293T cells expressing NanoLuc preincubated for 3 hrs followed by tracer addition and measured after 1 hr by NanoBRET analysis; type: cell-based; settings: Homo sapiens, time 4.0 hrs
BaF3 [16] = test: Inhibition of biotinylated osimertinib binding to EGFR L858R mutant in mouse BaF3 cells preincubated for 3 hrs followed by biotinylated osimertinib addition and incubated overnight by competitive pulldown based Western blot analysis; type: cell-based; settings: dose 0.2-10 µM
[17] = molecular target: T1, Tyrosine-protein kinase BTK; test: Inhibition of biotinylated ibrutinib binding to BTK in human MINO cells at 0.2 to 10 uM preincubated for 3.5 hrs followed by biotinylated ibrutinib addition and incubated overnight by competitive pulldown based Western blot analysis; type: cell-based; settings: dose 0.2-10 µM
[18] = molecular target: Epidermal growth factor receptor (Mus musculus) (UniProt Q01279); test: Inhibition of EGFR phosphorylation at Y1068 residue in mouse Ba/F3 EGFR-L858R cells at 0.2 to 10 uM incubated for 6 hrs by Western blot analysis; type: cell-based; settings: dose 0.2-10 µM
Chain of Epidermal growth factor receptor (Mus musculus) (Q01279 whole entry): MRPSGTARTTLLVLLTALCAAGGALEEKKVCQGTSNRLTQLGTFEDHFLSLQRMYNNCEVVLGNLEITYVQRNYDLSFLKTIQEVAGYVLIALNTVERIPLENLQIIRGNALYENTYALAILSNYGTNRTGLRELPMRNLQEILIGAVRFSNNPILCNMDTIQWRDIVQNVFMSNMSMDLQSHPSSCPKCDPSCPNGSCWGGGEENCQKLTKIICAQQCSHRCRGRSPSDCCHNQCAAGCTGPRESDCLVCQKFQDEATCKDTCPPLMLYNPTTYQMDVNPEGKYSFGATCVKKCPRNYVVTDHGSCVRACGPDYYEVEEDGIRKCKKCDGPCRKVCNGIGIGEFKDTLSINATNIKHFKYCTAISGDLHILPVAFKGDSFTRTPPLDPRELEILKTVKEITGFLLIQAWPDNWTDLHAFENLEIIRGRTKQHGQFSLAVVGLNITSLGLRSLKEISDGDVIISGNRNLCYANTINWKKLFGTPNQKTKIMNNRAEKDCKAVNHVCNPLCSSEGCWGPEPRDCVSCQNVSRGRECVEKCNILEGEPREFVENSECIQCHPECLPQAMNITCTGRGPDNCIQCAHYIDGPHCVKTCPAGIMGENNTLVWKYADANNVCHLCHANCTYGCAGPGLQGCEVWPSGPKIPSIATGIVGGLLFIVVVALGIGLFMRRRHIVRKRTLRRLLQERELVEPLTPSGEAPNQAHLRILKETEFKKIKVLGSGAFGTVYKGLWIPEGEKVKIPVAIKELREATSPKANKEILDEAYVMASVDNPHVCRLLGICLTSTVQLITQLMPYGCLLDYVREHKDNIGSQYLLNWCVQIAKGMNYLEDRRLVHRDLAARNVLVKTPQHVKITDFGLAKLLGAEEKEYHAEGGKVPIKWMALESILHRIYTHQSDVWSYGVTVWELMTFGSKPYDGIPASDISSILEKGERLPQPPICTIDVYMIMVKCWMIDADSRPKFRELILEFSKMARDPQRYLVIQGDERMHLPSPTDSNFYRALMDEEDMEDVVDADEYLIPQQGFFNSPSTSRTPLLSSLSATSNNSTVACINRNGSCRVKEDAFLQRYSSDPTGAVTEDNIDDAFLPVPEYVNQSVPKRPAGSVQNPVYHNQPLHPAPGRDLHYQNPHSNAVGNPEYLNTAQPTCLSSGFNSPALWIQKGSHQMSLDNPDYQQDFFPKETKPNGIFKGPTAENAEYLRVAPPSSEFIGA

[19] = molecular target: Mitogen-activated protein kinase 1 and 3 (ERK2 and ERK1) (Mus musculus) (UniProt P63085+Q63844); test: Inhibition of ERK1/2 phosphorylation at T202/Y204 residues in mouse Ba/F3 EGFR-L858R cells at 0.2 to 10 uM incubated for 6 hrs by Western blot analysis; type: cell-based; settings: dose 0.2-10 µM
Chain of Mitogen-activated protein kinase 1 and 3 (ERK2 and ERK1) (Mus musculus) (P63085 whole entry, looked up): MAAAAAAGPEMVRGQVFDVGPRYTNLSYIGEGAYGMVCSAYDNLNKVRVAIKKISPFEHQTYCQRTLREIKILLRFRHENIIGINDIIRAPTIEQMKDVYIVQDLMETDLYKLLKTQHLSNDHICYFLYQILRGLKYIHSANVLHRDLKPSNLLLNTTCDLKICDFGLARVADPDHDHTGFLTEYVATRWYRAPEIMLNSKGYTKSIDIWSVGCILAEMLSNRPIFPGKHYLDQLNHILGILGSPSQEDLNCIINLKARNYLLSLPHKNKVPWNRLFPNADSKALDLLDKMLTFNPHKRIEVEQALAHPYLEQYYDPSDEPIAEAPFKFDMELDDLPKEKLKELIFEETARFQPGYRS
Chain of Mitogen-activated protein kinase 1 and 3 (ERK2 and ERK1) (Mus musculus) (Q63844 whole entry, looked up): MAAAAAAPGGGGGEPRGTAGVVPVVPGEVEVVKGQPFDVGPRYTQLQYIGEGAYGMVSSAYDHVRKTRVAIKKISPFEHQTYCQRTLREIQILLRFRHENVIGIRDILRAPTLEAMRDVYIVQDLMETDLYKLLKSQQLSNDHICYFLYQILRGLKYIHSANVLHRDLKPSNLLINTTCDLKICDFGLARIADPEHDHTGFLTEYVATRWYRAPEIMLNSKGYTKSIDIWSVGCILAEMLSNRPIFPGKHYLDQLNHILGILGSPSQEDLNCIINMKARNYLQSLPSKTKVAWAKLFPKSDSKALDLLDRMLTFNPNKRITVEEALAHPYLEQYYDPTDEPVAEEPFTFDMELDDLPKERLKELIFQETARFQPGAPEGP

[20] = molecular target: RAC-alpha serine/threonine-protein kinase (Mus musculus) (UniProt P31750); test: Inhibition of AKT phosphorylation at S473 residue in mouse Ba/F3 EGFR-L858R cells at 0.2 to 10 uM incubated for 6 hrs by Western blot analysis; type: cell-based; settings: dose 0.2-10 µM
Chain of RAC-alpha serine/threonine-protein kinase (Mus musculus) (P31750 whole entry): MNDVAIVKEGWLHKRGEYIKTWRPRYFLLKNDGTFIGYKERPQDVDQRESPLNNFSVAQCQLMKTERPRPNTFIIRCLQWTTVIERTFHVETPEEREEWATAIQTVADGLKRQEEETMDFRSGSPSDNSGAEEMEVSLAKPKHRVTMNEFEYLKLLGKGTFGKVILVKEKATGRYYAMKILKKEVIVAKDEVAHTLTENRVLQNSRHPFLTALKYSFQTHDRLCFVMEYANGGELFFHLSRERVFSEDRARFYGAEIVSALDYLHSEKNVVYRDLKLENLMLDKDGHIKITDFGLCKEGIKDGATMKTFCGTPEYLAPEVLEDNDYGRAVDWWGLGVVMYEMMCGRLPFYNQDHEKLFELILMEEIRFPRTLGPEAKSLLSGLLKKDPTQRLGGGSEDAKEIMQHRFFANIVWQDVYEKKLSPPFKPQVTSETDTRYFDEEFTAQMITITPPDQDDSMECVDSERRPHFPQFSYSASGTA

[21] = molecular target: T6, Tyrosine-protein kinase Blk (Homo sapiens, UniProt P51451); test: Inhibition of BLK (unknown origin) harboring cysteine at alphaD-1 position by LanthaScreen assay
T6 sequence (P51451 whole entry): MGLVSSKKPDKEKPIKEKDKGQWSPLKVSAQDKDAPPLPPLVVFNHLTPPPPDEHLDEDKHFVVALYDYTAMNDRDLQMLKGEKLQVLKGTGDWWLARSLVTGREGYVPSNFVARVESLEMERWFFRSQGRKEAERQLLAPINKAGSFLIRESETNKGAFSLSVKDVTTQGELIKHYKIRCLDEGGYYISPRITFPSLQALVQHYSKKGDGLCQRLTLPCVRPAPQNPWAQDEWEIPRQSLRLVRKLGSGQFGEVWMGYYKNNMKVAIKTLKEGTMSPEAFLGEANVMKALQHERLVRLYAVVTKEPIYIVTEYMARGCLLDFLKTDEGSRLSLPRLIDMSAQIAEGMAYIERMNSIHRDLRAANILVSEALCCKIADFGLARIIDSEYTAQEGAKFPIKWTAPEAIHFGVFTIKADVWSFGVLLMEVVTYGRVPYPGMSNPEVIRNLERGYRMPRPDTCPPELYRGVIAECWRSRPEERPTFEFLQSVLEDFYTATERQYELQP

[22] = molecular target: T6, Tyrosine-protein kinase Blk; test: Displacement of K-4 tracer from wild type BLK in HEK293T cells expressing NanoLuc preincubated for 3 hrs followed by tracer addition and measured after 1 hr by NanoBRET analysis; type: cell-based
BaF3 [23] = test: Inhibition of biotinylated osimertinib binding to EGFR L858R mutant in mouse BaF3 cells at 0.2 to 10 uM preincubated for 3 hrs followed by biotinylated osimertinib addition and incubated overnight by competitive pulldown based Western blot analysis; type: cell-based; settings: dose 0.2-10 µM

Compound: C=CC(=O)N1CCC(Oc2nn(C(C)(C)C)c3ncnc(N)c23)C1 (centres undefined)
- IC50 (cells): 2.41 µM
- IC50 (BaF3 [1]): 5.99 µM

Compound: C=CC(=O)Nc1cc(Nc2nccc(-c3cn(C)c4ccccc34)n2)c(OC)cc1N(C)CCN(C)C [OSIMERTINIB]
- IC50 (cells): 0.0024 µM
- IC50 (BaF3 [1]): 0.019 µM

Compound: C=CC(=O)N1CC(Oc2nn(C(C)(C)C)c3ncnc(N)c23)C1
- Activity [2]: Active
- Activity [3]: Active
- Activity [4]: Active
- Activity [5]: Active
- Activity [6]: Active
- Activity [7]: Active
- IC50 [8]: 0.242 µM
- IC50 [9]: 0.0592 µM
- IC50 [10]: 0.105 µM
- IC50 [11]: > 10 µM
- Activity [12]: 80%
- Activity [13]: 60%
- IC50 [14]: 0.865 µM
- Activity [15]: inactive
- Activity (HEK293T): inactive
- inhibition (BaF3 [16]): Dose-Dependent Effect
- inhibition [17]: Active
- inhibition [18]: Active
- inhibition [19]: Active
- inhibition [20]: Active

Compound: C=CC(=O)N1CCC(Oc2nn(C(C)(C)C)c3ncnc(N)c23)CC1
- IC50 (cells): 0.604 µM
- IC50 (BaF3 [1]): 3.62 µM

Compound: CCC(=O)N1CC(Oc2nn(C(C)(C)C)c3ncnc(N)c23)C1
- IC50 [8]: > 10 µM
- IC50 [9]: > 10 µM
- IC50 [10]: > 10 µM
- IC50 [21]: > 10 µM
- IC50 [22]: > 30 µM
- IC50 [14]: > 30 µM
- inhibition (BaF3 [23]): inactive
- inhibition [17]: inactive
- inhibition [18]: inactive
- inhibition [19]: inactive
- inhibition [20]: inactive

Compound: C=CC(=O)N1CCCC(Oc2nn(C(C)(C)C)c3ncnc(N)c23)C1 (centres undefined)
- IC50 (cells): 10.6 µM
- IC50 (BaF3 [1]): > 10 µM
